For eleven molecules, melting point and IC50 results are on record in US7141586B2, “Nicotinamide derivatives useful as PDE4 inhibitors” (Pfizer Inc., priority 2003, dated 2006).

Tested on in one series: not given
Assay: not given
Conditions: not given
Regarding `CSc1cccc(Oc2ncc(F)cc2C(=O)N[C@H]2CCCC[C@@H]2CO)c1` (relative stereo) [Example 56, 5-Fluoro-N-[trans-2-hydroxymethyl-cyclohexyl]-2-(3-methylsulfanyl-phenoxy)-nicotinamide], the melting point (usually the temperature of the solid-liquid transition) fell in the range of 128 to 129 °C.
For the molecule `CSc1cccc(Oc2ncc(F)cc2C(=O)N[C@H]2CC[C@@H](CO)CC2)c1` [Example 60, 5-Fluoro-N-(cis-4-hydroxymethyl-cyclohexyl)-2-(3-methylsulfanyl-phenoxy)-nicotinamide], the melting point is 123 to 126 °C.
In turn, `CSc1cccc(Oc2ncc(F)cc2C(=O)N[C@H]2CCCC[C@H]2O)c1` (relative stereo) [Example 31, 5-Fluoro-N-[cis-2-hydroxy-cyclohexyl]-2-(3-methylsulfanyl-phenoxy)-nicotinamide] showed a melting point of 99 to 101 °C.

The test system of the next series is TNFα release from human peripheral blood mononuclear cells. Briefly: Inhibition of LPS-stimulated TNFα release from human peripheral blood mononuclear cells (TNFα screen). Particulars: human PBMC stimulated with lipopolysaccharide, 18 hours incubation, TNFα in supernatant by ELISA. The series is classed as cell-based. The protocol:
Venous blood is collected from healthy volunteers and the mononuclear cells purified by centrifugation through Histopaque (Ficoll) cushions. TNFα production from these cells is stimulated by addition of lipopolysaccharide. After 18 hours incubation in the presence of LPS, the cell supernatant is removed and the concentration of TNFα in the supernatant determined by ELISA. Addition of PDE4 inhibitors reduces the amount of TNFα produced. An IC50 is determined which is equal to the concentration of compound that gives 50% inhibition of TNFα production as compared to the LPS stimulated control wells.
(In an ELISA, binding on a coated surface is turned into a signal by an enzyme label.)
Regarding “Syn-5-fluoro-N-[4-(2-hydroxy-benzoylamino)-cyclohexyl]-2-(3-methylsulfanyl-phenoxy)-nicotinamide [Example 11]”, the midpoint of inhibition, the IC50, lay at 50 pM. That is a picomolar value.
“Syn-5-fluoro-N-{4-[(4-methyl-1H-imidazole-2-carbonyl)-amino]-cyclohexyl}-2-(3-methylsulfanyl-phenoxy)-nicotinamide [Example 4]”: the IC50 – broadly, the midpoint of a concentration-inhibition curve – is 150 pM.
Turning to “Syn-5-fluoro-N-[4-(4-hydroxy-2-methoxy-benzoylamino)-cyclohexyl]-2-(3-methylsulfanyl-phenoxy)-nicotinamide [Example 22]”, inhibition was half-maximal at 70 pM (IC50). Compared with the last molecule, the IC50 is about 2.1-fold lower.
In the case of “Syn-5-fluoro-2-(3-methylsulfanyl-phenoxy)-N-{4-[(2,3-dimethyl-1H-pyrazole-5-carbonyl)-amino]-cyclohexyl}-nicotinamide [Example 3]”, the IC50 is 370 pM.
Regarding “Syn-5-fluoro-N-[4-(5-chloro-2-hydroxy-benzoylamino)-cyclohexyl]-2-(3-methylsulfanyl-phenoxy)-nicotinamide [Example 5]”, the 50% inhibitory concentration (IC50) was determined as 150 pM.
In the case of `CSc1cccc(Oc2ncc(F)cc2C(=O)N[C@H]2CC[C@@H](NC(=O)c3cc(C)ccc3O)CC2)c1` [Example 1, Syn-5-Fluoro N-[4-(2-hydroxy-5-methyl-benzoylamino)-cyclohexyl]-2-(3-methylsulfanyl-phenoxy)-nicotinamide], the IC50 was 400 pM.
Still for that read-out and setting: for “Syn-5-fluoro-N-[4-(2-hydroxy-4-methyl-benzoylamino)-cyclohexyl]-2-(3-methylsulfanyl-phenoxy)-nicotinamide [Example 10]” the value was 50 pM; for “Syn-5-fluoro-N-{4-[(1H-imidazole-5-carbonyl)-amino]-cyclohexyl}-2-(3-methylsulfanyl-phenoxy)-nicotinamide [Example 18]”, 600 pM.
